Assay results from US11708562B2, “Differentiation of human embryonic stem cells” (Janssen Biotech, Inc., priority 2006, dated 2023).

Test system: H9P83 cells on MATRIGEL and H9P44 cells on MEFs
Experiment: Microarray analysis of gene expression after definitive endoderm formation (Table IV)
Format: cell-based, human
Details: after 5 days of treatment
Experimental: Controls for each group included cells plated on […]-coated dishes and cultured in MEF-conditioned medium or cells plated on MEFs and cultured in ES medium.
Sample preparation, hybridization, and image analysis were performed according to the Affymetrix Human Genome U133 Plus 2.0 Array. Following normalization and a log transformation, data analysis was performed using OmniViz® software (MA) and […] (VizXLabs, WA). The variability within each treatment and among the different treatments was compared using the Pearson correlation coefficient. […] Significant differences in gene expression between the samples were evaluated using analysis of variance and an F-test with adjusted P-value (Benjamini and Hochberg correction) of ≤0.05. Only genes with a present call were included in the analysis.

[1] = H9P44 on MEFs-DE stage, undifferentiated H9P44 on MEFs 2.17
[2] = H9P44 on MEFs-DE stage, undifferentiated H9P44 on MEFs 2.18
[3] = H9P44 on MEFs-DE stage, undifferentiated H9P44 on MEFs 3.80
[4] = H9P83 on Matrigel-DE stage, undifferentiated H9P83 on Matrigel 1.38

Substance: Activin A: a member of the TGFβ superfamily; growth factor (R&D Systems) used to differentiate human embryonic stem cells
- expression of HCN1 (BM682352, cDNA FLJ37204 fis, clone BRALZ2006976) (H9P44 on MEFs-DE stage): −3.88
- expression of INDO (M34455, indoleamine 2,3-dioxygenase (IDO)) (H9P44 on MEFs-DE stage): 1.69
- expression of JAKMIP2 (BU729850, hypothetical protein LOC153469) (H9P44 on MEFs-DE stage): −1.56
- expression of LOC157627 (AL832535, cDNA DKFZp547J1816) (H9P44 on MEFs-DE stage): −1.50
- expression of PCSK1 (NM_000439, proprotein convertase subtilisinkexin type 1) (H9P44 on MEFs-DE stage): −3.19
- expression of SMOC2 (AB014737, mRNA for SMAP-2b) (H9P44 on MEFs-DE stage): −2.27
- SCNN1G (AI985987) gene expression (H9P44 on MEFs-DE stage, undifferentiated H9P44 on MEFs 0.12): −2.70
- TMEM16A (NM_018043) gene expression (H9P44 on MEFs-DE stage, undifferentiated H9P44 on MEFs 0.25): −3.93
- LOC646326 (BE972639) gene expression (H9P44 on MEFs-DE stage, undifferentiated H9P44 on MEFs 0.33): −2.24
- COL14A1 (AI693516) gene expression (H9P44 on MEFs-DE stage, undifferentiated H9P44 on MEFs 0.96): −1.81
- AK5 (BG169832) gene expression (H9P44 on MEFs-DE stage, undifferentiated H9P44 on MEFs 1.03): −1.94
- C9orf39 (AA280904) gene expression (H9P44 on MEFs-DE stage, undifferentiated H9P44 on MEFs 1.13): −0.78
- LOC200230 (AI056877) gene expression (H9P44 on MEFs-DE stage, undifferentiated H9P44 on MEFs 1.15): −1.35
- CTNND2 (U96136) gene expression (H9P44 on MEFs-DE stage, undifferentiated H9P44 on MEFs 1.18): −1.17
- SDK2 (N23651) gene expression (H9P44 on MEFs-DE stage, undifferentiated H9P44 on MEFs 1.27): −2.07
- SAMHD1 (AF147427) gene expression (H9P44 on MEFs-DE stage, undifferentiated H9P44 on MEFs 1.35): −2.30
- PAH (NM_000277) gene expression (H9P44 on MEFs-DE stage, undifferentiated H9P44 on MEFs 1.46): −0.42
- AL120674 (ESTs) gene expression (H9P44 on MEFs-DE stage, undifferentiated H9P44 on MEFs 1.55): −2.20
- AI742043 (ESTs) gene expression (H9P44 on MEFs-DE stage, undifferentiated H9P44 on MEFs 1.77): −1.45
- DAZL (NM_001351) gene expression (H9P44 on MEFs-DE stage, undifferentiated H9P44 on MEFs 1.93): −0.73
- PSMB9 (NM_002800) gene expression (H9P44 on MEFs-DE stage, undifferentiated H9P44 on MEFs 2.05): −1.43
- BF698797 (ESTs) gene expression (H9P44 on MEFs-DE stage, undifferentiated H9P44 on MEFs 2.07): −0.40
- AF107846 (neuroendocrine-specific Golgi protein p55 (XLalphas) gene) expression (H9P44 on MEFs-DE stage, undifferentiated H9P44 on MEFs 2.12): −2.56
- CHST8 (NM_022467) gene expression [1]: 0.48
- NPTX1 (NM_002522) gene expression [1]: −1.19
- FGF19 (AF110400) gene expression [2]: −0.91
- PCDH8 (NM_002590) gene expression [2]: 0.12
- LOC157627 (AF052108) gene expression (H9P44 on MEFs-DE stage, undifferentiated H9P44 on MEFs 2.26): −1.33
- C10orf96 (BC044830) gene expression (H9P44 on MEFs-DE stage, undifferentiated H9P44 on MEFs 2.28): −1.39
- CR2 (NM_001877) gene expression (H9P44 on MEFs-DE stage, undifferentiated H9P44 on MEFs 2.35): −1.44
- SAMHD1 (NM_015474) gene expression (H9P44 on MEFs-DE stage, undifferentiated H9P44 on MEFs 2.89): 0.29
- PSMB8 (U17496) gene expression (H9P44 on MEFs-DE stage, undifferentiated H9P44 on MEFs 3.30): 0.09
- HHIP (AK098525) gene expression (H9P44 on MEFs-DE stage, undifferentiated H9P44 on MEFs 3.32): −0.11
- KCNG3 (NM_133329) gene expression (H9P44 on MEFs-DE stage, undifferentiated H9P44 on MEFs 3.67): 0.26
- STXBP6 (N21096) gene expression (H9P44 on MEFs-DE stage, undifferentiated H9P44 on MEFs 3.69): 1.14
- NMI (NM_004688) gene expression [3]: 1.13
- RMST (BE468066) gene expression [3]: 1.63
- TOX (AI961231) gene expression (H9P44 on MEFs-DE stage, undifferentiated H9P44 on MEFs 4.00): 1.13
- C20orf118 (BF437747) gene expression (H9P44 on MEFs-DE stage, undifferentiated H9P44 on MEFs 4.57): 1.75
- C20orf118 (AV715309) gene expression (H9P44 on MEFs-DE stage, undifferentiated H9P44 on MEFs 4.76): 1.48
- FEZ1 (NM_005103) gene expression (H9P44 on MEFs-DE stage, undifferentiated H9P44 on MEFs 4.98): 2.20
- SCG5 (NM_003020) gene expression (H9P44 on MEFs-DE stage, undifferentiated H9P44 on MEFs 5.01): 3.11
- LECT1 (NM_007015) gene expression (H9P44 on MEFs-DE stage, undifferentiated H9P44 on MEFs 5.36): 1.83
- IFIH1 (NM_022168) gene expression (H9P44 on MEFs-DE stage, undifferentiated H9P44 on MEFs −0.10): −2.15
- ATP5S (BE968806) gene expression (H9P44 on MEFs-DE stage, undifferentiated H9P44 on MEFs −0.34): −4.73
- PAK7 (AB040812) gene expression (H9P44 on MEFs-DE stage, undifferentiated H9P44 on MEFs −0.49): −4.18
- expression of HCN1 (BM682352, cDNA FLJ37204 fis, clone BRALZ2006976) (H9P83 on Matrigel-DE stage): −4.38
- expression of INDO (M34455, indoleamine 2,3-dioxygenase (IDO)) (H9P83 on Matrigel-DE stage): 1.58
- expression of JAKMIP2 (BU729850, hypothetical protein LOC153469) (H9P83 on Matrigel-DE stage): 0.43
- expression of LOC157627 (AL832535, cDNA DKFZp547J1816) (H9P83 on Matrigel-DE stage): −0.04
- expression of PCSK1 (NM_000439, proprotein convertase subtilisinkexin type 1) (H9P83 on Matrigel-DE stage): −2.68
- expression of SMOC2 (AB014737, mRNA for SMAP-2b) (H9P83 on Matrigel-DE stage): −2.04
- LOC646326 (BE972639) gene expression (H9P83 on Matrigel-DE stage, undifferentiated H9P83 on Matrigel 0.00): −2.71
- LOC200230 (AI056877) gene expression (H9P83 on Matrigel-DE stage, undifferentiated H9P83 on Matrigel 0.11): −2.37
- C9orf39 (AA280904) gene expression (H9P83 on Matrigel-DE stage, undifferentiated H9P83 on Matrigel 0.23): −1.58
- COL14A1 (AI693516) gene expression (H9P83 on Matrigel-DE stage, undifferentiated H9P83 on Matrigel 0.39): −1.63
- AF107846 (neuroendocrine-specific Golgi protein p55 (XLalphas) gene) expression (H9P83 on Matrigel-DE stage, undifferentiated H9P83 on Matrigel 0.44): −0.25
- AK5 (BG169832) gene expression (H9P83 on Matrigel-DE stage, undifferentiated H9P83 on Matrigel 0.62): −2.79
- PAH (NM_000277) gene expression (H9P83 on Matrigel-DE stage, undifferentiated H9P83 on Matrigel 0.65): −1.08
- CTNND2 (U96136) gene expression (H9P83 on Matrigel-DE stage, undifferentiated H9P83 on Matrigel 0.78): −1.33
- BF698797 (ESTs) gene expression (H9P83 on Matrigel-DE stage, undifferentiated H9P83 on Matrigel 0.93): −0.74
- AI742043 (ESTs) gene expression (H9P83 on Matrigel-DE stage, undifferentiated H9P83 on Matrigel 0.94): −0.76
- AL120674 (ESTs) gene expression (H9P83 on Matrigel-DE stage, undifferentiated H9P83 on Matrigel 1.00): −1.35
- SAMHD1 (AF147427) gene expression (H9P83 on Matrigel-DE stage, undifferentiated H9P83 on Matrigel 1.33): −0.99
- C10orf96 (BC044830) gene expression [4]: −0.32
- PSMB9 (NM_002800) gene expression [4]: 0.27
- LOC157627 (AF052108) gene expression (H9P83 on Matrigel-DE stage, undifferentiated H9P83 on Matrigel 1.49): 0.22
- CR2 (NM_001877) gene expression (H9P83 on Matrigel-DE stage, undifferentiated H9P83 on Matrigel 1.50): −0.43
- DAZL (NM_001351) gene expression (H9P83 on Matrigel-DE stage, undifferentiated H9P83 on Matrigel 1.69): −0.81
- HHIP (AK098525) gene expression (H9P83 on Matrigel-DE stage, undifferentiated H9P83 on Matrigel 1.76): −0.57
- CHST8 (NM_022467) gene expression (H9P83 on Matrigel-DE stage, undifferentiated H9P83 on Matrigel 2.11): −0.51
- FGF19 (AF110400) gene expression (H9P83 on Matrigel-DE stage, undifferentiated H9P83 on Matrigel 2.12): −0.08
- KCNG3 (NM_133329) gene expression (H9P83 on Matrigel-DE stage, undifferentiated H9P83 on Matrigel 2.18): 0.74
- NPTX1 (NM_002522) gene expression (H9P83 on Matrigel-DE stage, undifferentiated H9P83 on Matrigel 2.35): −0.48
- STXBP6 (N21096) gene expression (H9P83 on Matrigel-DE stage, undifferentiated H9P83 on Matrigel 2.42): 0.99
- SAMHD1 (NM_015474) gene expression (H9P83 on Matrigel-DE stage, undifferentiated H9P83 on Matrigel 2.63): 0.57
- FEZ1 (NM_005103) gene expression (H9P83 on Matrigel-DE stage, undifferentiated H9P83 on Matrigel 2.80): 2.08
- RMST (BE468066) gene expression (H9P83 on Matrigel-DE stage, undifferentiated H9P83 on Matrigel 3.26): 1.49
- TOX (AI961231) gene expression (H9P83 on Matrigel-DE stage, undifferentiated H9P83 on Matrigel 3.28): 1.23
- PSMB8 (U17496) gene expression (H9P83 on Matrigel-DE stage, undifferentiated H9P83 on Matrigel 3.43): 0.46
- NMI (NM_004688) gene expression (H9P83 on Matrigel-DE stage, undifferentiated H9P83 on Matrigel 3.54): 0.96
